{
  "source": "paper PMC4809600",
  "about": "“The Influence of Chronic Wound Extracts on Inflammatory Cytokine and Histatin Stability” (PLoS ONE, 2016)",
  "key": {"[1]": {"experiment": "Stability in CWE with protease inhibitor cocktail (PIC), capillary zone electrophoresis", "assay_type": "in vitro ADME, human", "conditions": "37°C, CZE, 0 h = 100%", "excerpt": "Debridement tissue was obtained from chronic ulcers of 15 patients with therapy resistant (arterio-venous) leg ulcers, according to procedures described earlier. In brief, moist, easily removable debridement material, essentially blood free, was collected from the ulcer surface and divided equally into two different solutions: (i) PBS (B. Braun, Melsungen, Germany), (ii) PBS with protease inhibitor cocktail (PIC) (1:100; v/v) (Sigma-Aldrich, Steinheim, Germany). The mixtures were gently shaken for 1 h at 4°C to elute proteins and centrifuged; the supernatants were stored at -80°C. Total protein content of the supernatant was measured using the BioRad Protein Assay (BioRad Laboratories, Hercules, California, USA) essentially as described by the supplier. Samples were diluted to 1 mg/ml protein and extracts of five different donors were pooled; three different pools of five donors were used in all experiments. The samples are referred to as chronic wound extracts (CWE).\nTo determine the stability of the different peptides in CWE, histatins and cytokines were dissolved in PBS at 1 mg/ml. Histatins and cytokines were incubated in a 1:1 ratio with (i) PBS, (ii) CWE in PBS, or (iii) CWE in PBS containing PIC, in a total volume of 25 μl. Imidazole (Sigma-Aldrich) was added as an internal standard, with a final concentration of 100 μg/ml. The mixtures were incubated at 37°C, and samples were taken at 0, 24, 48, 72 and 96 h. For histatins containing mixtures, additional samples were taken after 2, 4, 8 and 16 h of incubation.\nThe samples were analyzed with a BioFocus 2000 capillary zone electrophoresis system (Bio-Rad Laboratories, Hercules, CA, USA) equipped with an uncoated fused-silica capillary of internal diameter 50 μm and a length of 24 cm. Samples were loaded by pressure injection (5 psi/sec). Separation was performed at 10 kV (cathode at the detector side) at 20°C using 0.1 M phosphate buffer (pH 2.5) as electrolyte and monitored continuously at 200 nm. Peaks were quantified with the BioFocus Integrator software. In order to quantify the percentage of intact peptides remaining after incubation with CWE, the ratios of histatins, rhIL-6 or rhCXCL8 to internal standard was set at 100% at 0h, and the ratios at the other incubation time points were related to this."}, "[2]": {"experiment": "Stability in chronic wound extracts (CWE), capillary zone electrophoresis", "assay_type": "in vitro ADME, human", "conditions": "37°C, CZE; for Percentage intact, CWE 2h / Percentage intact, CWE 4h / Percentage intact, CWE 8h / Percentage intact, CWE 16h / Percentage intact, CWE 24h / Percentage intact, CWE 48h / Percentage intact, CWE 72h / Percentage intact, CWE 96h: 1 mg/ml in PBS mixed 1:1 with CWE (1 mg/ml protein, pool of 5 donors) in PBS, UV 200 nm, ratio to imidazole", "procedure,_shortened": "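Peptides or cytokines (1 mg/ml stock) mixed 1:1 with PBS or pooled chronic-wound extract (1 mg/ml protein, three pools of five donors), ±protease inhibitor cocktail, at 37 °C for up to 96 h. Analyzed by capillary zone electrophoresis (pH 2.5 phosphate, 200 nm), with peak ratio to imidazole standard relative to 0 h as % intact.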"}, "[3]": {"conditions": "1 mg/ml in PBS mixed 1:1 with CWE (1 mg/ml protein, pool of 5 donors) in PBS containing PIC (final 1:140 v/v), ratio to imidazole, experiment 1 of 3"}, "[4]": {"conditions": "1 mg/ml in PBS mixed 1:1 with CWE (1 mg/ml protein, pool of 5 donors) in PBS containing PIC (final 1:140 v/v), ratio to imidazole, experiment 2 of 3"}, "[5]": {"conditions": "1 mg/ml in PBS mixed 1:1 with CWE (1 mg/ml protein, pool of 5 donors) in PBS containing PIC (final 1:140 v/v), ratio to imidazole, experiment 3 of 3"}},
  "note": "Where no end group is shown, it is not given here.",
  "data": [
    {"sequence": "DSHEKRHHGYRRKFHEKHHSHREFPFYGDYGSNYLYDN [Hst1]", "values": [
      {"measurement": "Percentage intact, CWE + PIC 8h", "setting": "[1]; 1 mg/ml in PBS mixed 1:1 with CWE (1 mg/ml protein, pool of 5 donors) in PBS containing PIC (final 1:140 v/v), 8 h, ratio to imidazole, experiment 3 of 3", "result": 82.0587, "unit": "%"},
      {"measurement": "Percentage intact, CWE + PIC 16h", "setting": "[1]; [3]", "result": 72.2461, "unit": "%"},
      {"measurement": "Percentage intact, CWE + PIC 16h", "setting": "[1]; [4]", "result": 65.5164, "unit": "%"},
      {"measurement": "Percentage intact, CWE + PIC 16h", "setting": "[1]; [5]", "result": 70.9806, "unit": "%"},
      {"measurement": "Percentage intact, CWE + PIC 24h", "setting": "[1]; 1 mg/ml in PBS mixed 1:1 with CWE (1 mg/ml protein, pool of 5 donors) in PBS containing PIC (final 1:140 v/v), 24 h, ratio to imidazole, experiment 1 of 3", "result": 78.4236, "unit": "%"},
      {"measurement": "Percentage intact, CWE + PIC 24h", "setting": "[1]; 1 mg/ml in PBS mixed 1:1 with CWE (1 mg/ml protein, pool of 5 donors) in PBS containing PIC (final 1:140 v/v), 24 h, ratio to imidazole, experiment 2 of 3", "result": 69.711, "unit": "%"},
      {"measurement": "Percentage intact, CWE + PIC 24h", "setting": "[1]; 1 mg/ml in PBS mixed 1:1 with CWE (1 mg/ml protein, pool of 5 donors) in PBS containing PIC (final 1:140 v/v), 24 h, ratio to imidazole, experiment 3 of 3", "result": 68.9989, "unit": "%"},
      {"measurement": "Percentage intact, CWE + PIC 48h", "setting": "[1]; [3]", "result": 73.7424, "unit": "%"},
      {"measurement": "Percentage intact, CWE + PIC 48h", "setting": "[1]; [4]", "result": 59.1893, "unit": "%"},
      {"measurement": "Percentage intact, CWE + PIC 48h", "setting": "[1]; [5]", "result": 54.0682, "unit": "%"},
      {"measurement": "Percentage intact, CWE + PIC 72h", "setting": "[1]; [3]", "result": 64.2173, "unit": "%"},
      {"measurement": "Percentage intact, CWE + PIC 72h", "setting": "[1]; [4]", "result": 41.8342, "unit": "%"},
      {"measurement": "Percentage intact, CWE + PIC 72h", "setting": "[1]; [5]", "result": 36.0529, "unit": "%"},
      {"measurement": "Percentage intact, CWE + PIC 96h", "setting": "[1]; [3]", "result": 48.0273, "unit": "%"},
      {"measurement": "Percentage intact, CWE + PIC 96h", "setting": "[1]; [4]", "result": 30, "unit": "%"},
      {"measurement": "Percentage intact, CWE + PIC 96h", "setting": "[1]; [5]", "result": 21.2156, "unit": "%"},
      {"measurement": "remaining at 24 h, 0.5 mg/ml", "setting": "[1]; human, with protease inhibitor cocktail (PIC), CWE with protease inhibitor cocktail (final 1:140 v/v), 24 h, mean of 3 independent experiments, read-out: Remaining fraction of intact peptide after 24 h in CWE + PIC", "result": 72, "unit": "%"},
      {"measurement": "Percentage intact, CWE 2h", "setting": "[2]; 0 h = 100%, experiment 1 of 3", "result": 83.2738, "unit": "%"},
      {"measurement": "Percentage intact, CWE 2h", "setting": "[2]; 0 h = 100%, experiment 2 of 3", "result": 87.1828, "unit": "%"},
      {"measurement": "Percentage intact, CWE 2h", "setting": "[2]; 0 h = 100%, experiment 3 of 3", "result": 86.6201, "unit": "%"},
      {"measurement": "Percentage intact, CWE 4h", "setting": "[2]; 0 h = 100%, experiment 1 of 3", "result": 58.4193, "unit": "%"},
      {"measurement": "Percentage intact, CWE 4h", "setting": "[2]; 0 h = 100%, experiment 2 of 3", "result": 76.5418, "unit": "%"},
      {"measurement": "Percentage intact, CWE 4h", "setting": "[2]; 0 h = 100%, experiment 3 of 3", "result": 73.9107, "unit": "%"},
      {"measurement": "Percentage intact, CWE 8h", "setting": "[2]; 8 h, 0 h = 100%, experiment 1 of 3", "result": 32.9227, "unit": "%"},
      {"measurement": "Percentage intact, CWE 8h", "setting": "[2]; 8 h, 0 h = 100%, experiment 2 of 3", "result": 52.8031, "unit": "%"},
      {"measurement": "Percentage intact, CWE 8h", "setting": "[2]; 8 h, 0 h = 100%, experiment 3 of 3", "result": 51.366, "unit": "%"},
      {"measurement": "Percentage intact, CWE 16h", "setting": "[2]; 0 h = 100%, experiment 1 of 3", "result": 8.0136, "unit": "%"},
      {"measurement": "Percentage intact, CWE 16h", "setting": "[2]; 0 h = 100%, experiment 2 of 3", "result": 20.767, "unit": "%"},
      {"measurement": "Percentage intact, CWE 16h", "setting": "[2]; 0 h = 100%, experiment 3 of 3", "result": 27.1396, "unit": "%"},
      {"measurement": "Percentage intact, CWE 24h", "setting": "[2]; 24 h, 0 h = 100%, experiment 1 of 3", "result": 1.592, "unit": "%"},
      {"measurement": "Percentage intact, CWE 24h", "setting": "[2]; 24 h, 0 h = 100%, experiment 2 of 3", "result": 7.881, "unit": "%"},
      {"measurement": "Percentage intact, CWE 24h", "setting": "[2]; 24 h, 0 h = 100%, experiment 3 of 3", "result": 13.5375, "unit": "%"},
      {"measurement": "Percentage intact, CWE 48h", "setting": "[2]; 0 h = 100%, experiment 1 of 3", "result": 0.0001, "unit": "%"},
      {"measurement": "Percentage intact, CWE 48h", "setting": "[2]; 0 h = 100%, experiment 2 of 3", "result": 0.0001, "unit": "%"},
      {"measurement": "Percentage intact, CWE 48h", "setting": "[2]; 0 h = 100%, experiment 3 of 3", "result": 0.0001, "unit": "%"},
      {"measurement": "Percentage intact, CWE 72h", "setting": "[2]; 0 h = 100%, experiment 1 of 3", "result": 0.0001, "unit": "%"},
      {"measurement": "Percentage intact, CWE 72h", "setting": "[2]; 0 h = 100%, experiment 2 of 3", "result": 0.0001, "unit": "%"},
      {"measurement": "Percentage intact, CWE 72h", "setting": "[2]; 0 h = 100%, experiment 3 of 3", "result": 0.0001, "unit": "%"},
      {"measurement": "Percentage intact, CWE 96h", "setting": "[2]; 0 h = 100%, experiment 1 of 3", "result": 0.0001, "unit": "%"},
      {"measurement": "Percentage intact, CWE 96h", "setting": "[2]; 0 h = 100%, experiment 2 of 3", "result": 0.0001, "unit": "%"},
      {"measurement": "Percentage intact, CWE 96h", "setting": "[2]; 0 h = 100%, experiment 3 of 3", "result": 0.0001, "unit": "%"},
      {"measurement": "remaining at 8 h, 0.5 mg/ml", "setting": "[2]; human, chronic wound extracts (CWE), 1 mg/ml in PBS mixed 1:1 with CWE (1 mg/ml protein, pools of 5 donors), 8 h, 0 h = 100%, mean of 3 independent experiments, read-out: Original amount of peptide remaining intact after 8 h in CWE", "result": 46, "unit": "%"},
      {"measurement": "remaining at 24 h, 0.5 mg/ml", "setting": "[2]; human, chronic wound extracts (CWE), 1 mg/ml in PBS mixed 1:1 with CWE (1 mg/ml protein, pools of 5 donors), 24 h, 0 h = 100%, mean of 3 independent experiments, read-out: Original amount of peptide remaining intact after 24 h in CWE", "result": 8, "unit": "%"},
      {"measurement": "metabolised at 8 h, 0.5 mg/ml", "setting": "[2]; human, chronic wound extracts (CWE), incubation with chronic wound extracts, 8 h, read-out: Breakdown (degradation) in CWE in 8 h", "result": "~50", "unit": "%"}
    ]}
  ]
}
